Series [1] addresses T1, Glucocorticoid receptor (Homo sapiens, UniProt P04150).
T1 sequence (P04150 whole entry): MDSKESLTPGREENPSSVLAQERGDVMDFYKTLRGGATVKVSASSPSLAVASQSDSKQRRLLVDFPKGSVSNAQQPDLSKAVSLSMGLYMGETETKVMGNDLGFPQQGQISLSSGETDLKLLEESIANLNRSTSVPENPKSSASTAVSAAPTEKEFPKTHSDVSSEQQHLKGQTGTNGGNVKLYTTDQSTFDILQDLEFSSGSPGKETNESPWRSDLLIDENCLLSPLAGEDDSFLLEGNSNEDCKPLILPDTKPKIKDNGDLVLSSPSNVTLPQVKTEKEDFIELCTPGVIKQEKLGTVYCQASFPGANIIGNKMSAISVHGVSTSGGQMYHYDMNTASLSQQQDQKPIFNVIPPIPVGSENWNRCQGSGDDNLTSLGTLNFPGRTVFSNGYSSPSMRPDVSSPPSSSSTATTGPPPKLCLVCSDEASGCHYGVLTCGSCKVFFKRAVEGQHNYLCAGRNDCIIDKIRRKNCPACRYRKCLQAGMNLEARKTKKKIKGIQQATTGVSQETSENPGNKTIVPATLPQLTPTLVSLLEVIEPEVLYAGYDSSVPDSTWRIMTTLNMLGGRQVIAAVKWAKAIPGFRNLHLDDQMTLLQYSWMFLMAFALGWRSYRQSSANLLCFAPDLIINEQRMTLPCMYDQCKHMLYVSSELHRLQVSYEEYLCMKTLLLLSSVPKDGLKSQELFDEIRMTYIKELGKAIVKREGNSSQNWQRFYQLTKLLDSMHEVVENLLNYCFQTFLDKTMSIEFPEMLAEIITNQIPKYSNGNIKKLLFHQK
As to the kind of experiment: Agonist activity at glucocorticoid receptor in human A549 cells assessed as AP-1 transrepression by luciferase reporter gene assay. Type of series: cell-based. (In general: In a reporter assay the amount or activity of a reporter protein is the signal.)

For series [2], the system named is Liver microsome. Description: Metabolic stability in human liver microsomes assessed as compound remaining.
The target in series [3] is T1, Glucocorticoid receptor. As to the kind of experiment: Agonist activity at glucocorticoid receptor in human HeLa cells assessed as NP-1 transactivation by luciferase reporter gene assay. Type of series: cell-based.
Series [4] deals with T1, Glucocorticoid receptor. As to the kind of experiment: Agonist activity at glucocorticoid receptor in human A549 cells assessed as E-selectin transrepression by luciferase reporter gene assay. The class given is cell-based.
The subject of series [5] is Liver microsome. As to the kind of experiment: Metabolic stability in rat liver microsomes assessed as compound remaining.
The subject of series [6] is Liver. As to the kind of experiment: Metabolic stability in mouse liver microsomes assessed as compound remaining. Background: Liver microsomes are vesicles of endoplasmic reticulum, rich in cytochrome P450 enzymes.
Series [7] concerns the target T1, Glucocorticoid receptor. As to the kind of experiment: Binding affinity to glucocorticoid receptor (unknown origin) by fluorescence polarization assay.
Series [8] has as its target T1, Glucocorticoid receptor. On the set-up: species or system Blood.
Series [9] has as its target T2, Progesterone receptor (Homo sapiens, UniProt P06401).
T2 sequence (P06401 whole entry): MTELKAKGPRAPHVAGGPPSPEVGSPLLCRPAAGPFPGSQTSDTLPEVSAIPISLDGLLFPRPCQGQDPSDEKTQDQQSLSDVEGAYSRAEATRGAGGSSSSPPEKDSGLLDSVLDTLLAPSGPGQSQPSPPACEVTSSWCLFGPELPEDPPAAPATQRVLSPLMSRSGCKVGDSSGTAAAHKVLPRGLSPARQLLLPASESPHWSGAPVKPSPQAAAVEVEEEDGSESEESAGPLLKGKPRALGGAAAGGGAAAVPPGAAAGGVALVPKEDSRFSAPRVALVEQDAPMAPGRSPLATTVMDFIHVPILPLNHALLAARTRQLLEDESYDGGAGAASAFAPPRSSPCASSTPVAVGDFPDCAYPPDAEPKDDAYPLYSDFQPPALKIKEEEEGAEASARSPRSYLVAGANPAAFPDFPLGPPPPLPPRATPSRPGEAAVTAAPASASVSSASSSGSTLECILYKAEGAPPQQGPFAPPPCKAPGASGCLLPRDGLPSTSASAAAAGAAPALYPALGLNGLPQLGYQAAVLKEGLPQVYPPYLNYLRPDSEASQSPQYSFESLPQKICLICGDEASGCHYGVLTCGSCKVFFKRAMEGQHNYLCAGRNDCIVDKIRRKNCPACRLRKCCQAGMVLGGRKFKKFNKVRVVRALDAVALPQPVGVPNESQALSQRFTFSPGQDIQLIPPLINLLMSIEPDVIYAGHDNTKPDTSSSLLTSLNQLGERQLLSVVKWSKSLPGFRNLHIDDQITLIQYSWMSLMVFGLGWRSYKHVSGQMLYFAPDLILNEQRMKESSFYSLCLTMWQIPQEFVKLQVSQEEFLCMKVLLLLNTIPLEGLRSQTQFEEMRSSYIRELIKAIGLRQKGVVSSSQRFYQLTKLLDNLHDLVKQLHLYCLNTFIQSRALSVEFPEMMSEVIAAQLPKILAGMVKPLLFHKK
Description: Binding affinity to progesterone receptor (unknown origin) by fluorescence polarization assay.

As usually defined, the EC50 is the midpoint of the concentration-response curve. Broadly, the Ki is the dissociation constant of the complex between target and ligand, obtained from inhibition or displacement. Lower therefore signals tighter binding.

On to `CC(C)(C(=O)NC(N)=O)[C@@H]1c2ccc(-c3ccc(C(=O)N4CCCC4)nc3)nc2Oc2c(F)cccc21`, for which the EC50 turned out to be 16.5 nM in [1], 113 nM in series [3], 12.2 nM in series [4] and 211 nM in series [8]. In addition, the Stability came out at 73% in [2], 86% in series [5] and 86% in series [6]. The Ki was found to be 2 nM in [7] and 1360 nM in series [9].

For `CNC(=O)NC(=O)C(C)(C)[C@@H]1c2ccc(-c3ccc(C(=O)N4CCOCC4)cc3)nc2Oc2c(F)cccc21`, the EC50 in [1] came to 10.7 nM; in series [3] it was 302 nM; in [4], 16.1 nM; in series [8], 1040 nM. The inhibitory constant (Ki) in [7] stood at 6.9 nM; in [9], 1170 nM.

Consider `CN(C)C(=O)c1ccc(-c2ccc3c(n2)Oc2ccccc2[C@@H]3C(C)(C)C(=O)Nc2nncs2)cc1`, for which the EC50 stood at 33.2 nM in [1], 242 nM in [3], 33.8 nM in series [4] and 830 nM in series [8]. Also, the inhibition constant Ki turned out to be 1.9 nM in series [7] and 1530 nM in series [9].

Take `CC(C)(O)c1ccc(-c2ccc3c(n2)Oc2c(F)cccc2[C@@H]3C(C)(C)C(=O)NC(N)=O)cn1`: the EC50 stood at 21.9 nM in series [1], 107 nM in series [3], 14.7 nM in series [4] and 199 nM in series [8]. Also, the Stability stood at 73% in [2], 83% in series [5] and 76% in series [6]. In addition, the inhibition constant (Ki) stood at 4 nM in series [7] and 106 nM in series [9].

`CC(C)(C(=O)NC(N)=O)[C@H]1c2ccccc2Oc2nc(-c3ccc(C(=O)N4CCCC4)cc3)ccc21`: the EC50 in series [1] was determined as 8.7 nM; in [3] it was 49.3 nM; in [4], 5 nM; in series [8], 207 nM. Moreover, the Stability came to 78% in series [2], 49% in series [5] and 76% in series [6]. The figures for the Ki in series [7] and in series [9] were 1.9 nM and 2320 nM, respectively.

Regarding `COc1ccc(CNC(=O)NC(=O)C(C)(C)[C@@H]2c3ccc(-c4ccc(C(=O)N5CCOCC5)cc4)nc3Oc3c(F)cccc32)cc1`, the inhibitory constant (Ki) in series [9] was found to be 623 nM.

Turning to `CC(C)(C(=O)NC(=O)NC1CCC1)[C@@H]1c2ccc(-c3ccc(C(=O)N4CCOCC4)cc3)nc2Oc2c(F)cccc21`, the concentration for a half-maximal effect (EC50) was 17.5 nM in series [1], 676 nM in series [3], 32.8 nM in series [4] and 2380 nM in [8]. The figures for the Ki in series [7] and in [9] were 8.7 nM and 5340 nM, respectively.

For `CC(=O)NC(=O)C(C)(C)[C@@H]1c2ccc(-c3ccc(C(=O)N(C)C)cc3)nc2Oc2c(F)cccc21`, the EC50 was 213 nM in series [1], 1050 nM in series [3], 109 nM in series [4] and 1890 nM in series [8]. For the same compound, the inhibition constant Ki was determined as 69.4 nM in [7] and 12400 nM in series [9].

`CC(C)(C(=O)NC(N)=O)[C@@H]1c2ccc(-c3ccc(C(=O)N4CCOCC4)nc3)nc2Oc2c(F)cccc21` had a Ki in series [9] of 22.7 nM.

On to `CC(C)(C(=O)NC(=O)C1CCC1)[C@@H]1c2ccc(-c3ccc(C(=O)N4CCOCC4)cc3)nc2Oc2c(F)cccc21`, for which the 50% effective concentration (EC50) in series [1] turned out to be 17.5 nM; in [3], 586 nM; in series [4] it was 32.8 nM; in series [8] it was 2380 nM. The Ki in series [7] is 8.7 nM; in [9] it was 5340 nM.

For `C[C@@H]1C[C@H]2[C@@H]3CCC4=CC(=O)C=C[C@]4(C)[C@@]3(F)[C@@H](O)C[C@]2(C)[C@@]1(O)C(=O)CO` [DEXAMETHASONE], the affinity in [9] corresponds to a Ki of 778 nM.

With `CC(C)(C(=O)NC(N)=O)[C@H]1c2ccccc2Oc2nc(-c3ccc(C(=O)N4CCOCC4)cc3)ccc21`, the EC50 in [1] is 6.2 nM; in series [3] it was 11 nM; in [4], 4.8 nM; in series [8] it was 3050 nM. Moreover, the figures for the Stability in series [2], in series [5] and in series [6] were 95%, 86% and 75%, respectively. The figures for the Ki in series [7] and in series [9] were 1.5 nM and 282 nM, respectively.

In the case of `CC(C)C(=O)NC(=O)C(C)(C)[C@@H]1c2ccc(-c3ccc(C(=O)N4CCOCC4)cc3)nc2Oc2c(F)cccc21`, the EC50 was 23.7 nM in [1], 1040 nM in [3], 74.8 nM in series [4] and 389 nM in [8]. Also, the Ki in series [9] turned out to be 5040 nM.

Take `CN(C)C(=O)NC(=O)C(C)(C)[C@@H]1c2ccc(-c3ccc(C(=O)N4CCOCC4)cc3)nc2Oc2c(F)cccc21`: the EC50 in [1] amounted to 907 nM; in series [3] it was 8910 nM; in [4] it was 203 nM. Further, the figures for the Ki in series [7] and in series [9] were 110 nM and 10600 nM, respectively.

For `CC(C)(C(=O)NC(N)=O)[C@@H]1c2ccc(-c3ccc(C(=O)N4CC[C@H](F)C4)cc3)nc2Oc2c(F)cccc21`, the values for the EC50 in [1], in [3] and in [4] were 0.8 nM, 1.3 nM and 0.6 nM, respectively. Besides, the Stability in [2] was determined as 56%; in series [5] it was 67%; in series [6], 77%. The Ki in series [7] was 1.2 nM; in [9] it was 33300 nM.

Take `CC(=O)NC(=O)C(C)(C)[C@@H]1c2ccc(-c3ccc(C(=O)N4CCOCC4)cc3)nc2Oc2c(F)cccc21`: the concentration giving a half-maximal response (EC50) in series [1] was determined as 5 nM; in series [3] it was 14 nM; in series [4], 3.2 nM; in [8], 88 nM. Moreover, the results for the Ki in series [7] and in series [9] were 5.9 nM and 268 nM, respectively.

Regarding `CC(C)(C(=O)NC(N)=O)[C@@H]1c2ccc(-c3ccc(C(=O)N4CCCC4)cc3)nc2Oc2c(F)cccc21`, the values for the EC50 in series [1], in series [3] and in [4] were 1.6 nM, 5.3 nM and 1.4 nM, respectively. Further, the values for the Stability in series [2], in [5] and in [6] were 89%, 71% and 73%, respectively. In addition, the Ki came out at 0.7 nM in [7] and 604 nM in [9].

In the case of `CCN(C)C(=O)c1ccc(-c2ccc3c(n2)Oc2ccccc2[C@@H]3C(C)(C)C(=O)Nc2nncs2)cc1`, the EC50 in series [1] was determined as 17.7 nM; in [3], 98.5 nM; in [4], 6.89 nM; in [8] it was 379 nM. The values for the Ki in series [7] and in series [9] were 1.6 nM and 1830 nM, respectively.

Regarding `CC(C)(C(=O)NC(=O)C1CC1)[C@@H]1c2ccc(-c3ccc(C(=O)N4CCOCC4)cc3)nc2Oc2c(F)cccc21`, the EC50 was determined as 18.4 nM in [1], 177 nM in series [3], 17.6 nM in series [4] and 418 nM in series [8]. The Ki in [7] is 8.5 nM; in series [9], 2040 nM.

As for `CCNC(=O)NC(=O)C(C)(C)[C@@H]1c2ccc(-c3ccc(C(=O)N4CCOCC4)cc3)nc2Oc2c(F)cccc21`, in [9], the Ki is 2910 nM. This lies in the single-digit micromolar range.

On to `CC(=O)NC(=O)C(C)(C)[C@@H]1c2ccc(-c3ccc(C(=O)N4CCCC4)cc3)nc2Oc2c(F)cccc21`, for which the EC50 in series [1] was 5.1 nM; in series [3], 27 nM; in series [4], 3.6 nM; in series [8], 218 nM. For the same compound, the Ki in series [7] stood at 2.5 nM; in [9], 12400 nM.
